The target in the experiment is T1, Human BCL-XL protein (N-terminal HiBiT tagged BCL-XL in HT1080 cells) (Homo sapiens, UniProt Q07817).
T1 construct: expressed in transfected cells; host or cells: HT-1080 (ATCC CCL-121), stably transduced with lentivirus pLV-UBC-N-HiBiT-BCL-XL-PGK-puro and selected with puromycin
The experiment is described as follows: HiBiT based degradation assay. The format is cell-based. The note with it: HT1080 cells expressing HiBiT-BCL-XL; for Ymin (6 h) / Ymin (24 h): BCL-XL degradation normalized with DMSO control; for DC50: BCL-XL degradation. The gist of the method:
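HT1080 cells stably transduced by lentivirus with N-terminally HiBiT-tagged human BCL-XL and kept under 1 μg/mL puromycin selection were seeded at three thousand cells per well in 40 μL RPMI 1640 into 384-well plates pre-spotted with compounds across a concentration range. Luminescence was read on a PHERAstar FSX, normalized to DMSO, and fitted with a four-parameter logistic model.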
For orientation: With HiBiT, luminescence reflects the tagged protein that the partner subunit can reach.

Molecules are shown by their SMILES. Read-outs that look alike come from different tables or passages of the source. Some results are limits rather than exact numbers.

T1 sequence (Q07817 whole entry): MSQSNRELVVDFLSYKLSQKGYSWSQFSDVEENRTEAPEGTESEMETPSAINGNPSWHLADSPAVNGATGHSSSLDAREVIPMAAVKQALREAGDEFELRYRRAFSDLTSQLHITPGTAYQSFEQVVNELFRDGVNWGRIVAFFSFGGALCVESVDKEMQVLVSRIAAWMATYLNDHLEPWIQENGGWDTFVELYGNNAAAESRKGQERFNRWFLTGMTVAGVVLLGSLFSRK

`Cc1c(O[C@H](C)CCC2CCN(CC(=O)Nc3cccc4c(C5CCC(=O)NC5=O)nn(C)c34)CC2)cccc1-c1ccc(N2CCc3cccc(C(=O)Nc4nc5ccccc5s4)c3C2)nc1C(=O)O` (stereo partly drawn) [Compound 169b, 6-[8-(1,3-benzothiazol-2-ylcarbamoyl)-3,4-dihydro-1H-isoquinolin-2-yl]-3-[3-[(1R)-3-[1-[2-[[3-(2,6-dioxo-3-piperidyl)-1-methyl-indazol-7-yl]amino]-2-oxo-ethyl]-4-piperidyl]-1-methyl-propoxy]-2-methyl-phenyl] pyridine-2-carboxylic acid]: the “Ymin (6 h)” value (6 h) is reported as “C (Ymin ≥ 70%)”. In addition, the “Ymin (24 h)” value (24 h) is reported as “B (50% ≤ Ymin < 70%)”. The DC50 by setting is: (6 h, read-out: EC50 (6 h)) under 100 nM; (24 h, read-out: EC50 (24 h)) under 100 nM.

As for `Cc1c(OCCCC2CCN(C3CCN(c4ccc5c(C6CCC(=O)NC6=O)nn(C)c5c4)CC3)CC2)cccc1-c1ccc(N2CCc3cccc(C(=O)Nc4nc5ccccc5s4)c3C2)nc1C(=O)O` (stereo not drawn) [Compound 306, 6-(8-(benzo[d]thiazol-2-ylcarbamoyl)-3,4-dihydroisoquinolin-2(1H)-yl)-3-(3-(3-(1′-(3-(2,6-dioxopiperidin-3-yl)-1-methyl-1H-indazol-6-yl)-[1,4′-bipiperidin]-4-yl)propoxy)-2-methylphenyl)picolinic acid], the “Ymin (24 h)” value (24 h) is “A (Ymin < 50%)”. In addition, the DC50 (24 h, read-out: EC50 (24 h)) is under 100 nM.

Turning to `Cc1c(OCCCN2CCN(CC(=O)N3CCN(c4cccc5c(C6CCC(=O)NC6=O)nn(C)c45)CC3)CC2)cccc1-c1ccc(N2CCc3cccc(C(=O)Nc4nc5ccccc5s4)c3C2)nc1C(=O)O` (stereo not drawn) [Compound 151, 6-(8-(Benzo[d]thiazol-2-ylcarbamoyl)-3,4-dihydroisoquinolin-2(1H)-yl)-3-(3-(3-(4-(2-(4-(3-(2,6-dioxopiperidin-3-yl)-1-methyl-1H-indazol-7-yl)piperazin-1-yl)-2-oxoethyl)piperazin-1-yl)propoxy)-2-methylphenyl)picolinic acid], the “Ymin (6 h)” value (6 h) is “B (50% ≤ Ymin < 70%)”. Further, where the note is “24 h”, the “Ymin (24 h)” value is “A (Ymin < 50%)”. Moreover, the DC50 is, setting by setting: (6 h, read-out: EC50 (6 h)) 100 to 1000 nM; (24 h, read-out: EC50 (24 h)) under 100 nM.

`Cc1c(O[C@H]2CC[C@H](CCCCN3CCN(c4cccc5c(C6CCC(=O)NC6=O)nn(C)c45)C[C@H]3C)CC2)cccc1-c1ccc(N2CCc3cccc(C(=O)Nc4nc5ccccc5s4)c3C2)nc1C(=O)O` (stereo partly drawn) [Compound 345a, 6-(8-(benzo[d]thiazol-2-ylcarbamoyl)-3,4-dihydroisoquinolin-2(1H)-yl)-3-(3-(((1s,4r)-4-(4-((2R)-4-(3-(2,6-dioxopiperidin-3-yl)-1-methyl-1H-indazol-7-yl)-2-methylpiperazin-1-yl)butyl)cyclohexyl)oxy)-2-methylphenyl)picolinic acid]: the “Ymin (24 h)” value (24 h) is “A (Ymin < 50%)”. Moreover, the DC50 (24 h, read-out: EC50 (24 h)) is under 100 nM.

For the compound `Cc1c(OCC[C@@H](C)C2CCN(CC(=O)Nc3ccc4c(C5CCC(=O)NC5=O)nn(C)c4c3)CC2)cccc1-c1ccc(N2CCc3cccc(C(=O)Nc4nc5ccccc5s4)c3C2)nc1C(=O)O` (stereo partly drawn) [Compound 167a, 6-[8-(1,3-benzothiazol-2-ylcarbamoyl)-3,4-dihydro-1H-isoquinolin-2-yl]-3-[3-[(3R)-3-[1-[2-[[3-(2,6-dioxo-3-piperidyl)-1-methyl-indazol-6-yl]amino]-2-oxo-ethyl]-4-piperidyl]butoxy]-2-methyl-phenyl]pyridine-2-carboxylic acid], the “Ymin (24 h)” value (24 h) is “A (Ymin < 50%)”. Also, the DC50 (24 h, read-out: EC50 (24 h)) was under 100 nM.

Regarding `Cc1c(O[C@H]2CC[C@H](CCCCN3CCN(c4ccc5c(C6CCC(=O)NC6=O)nn(C)c5c4)[C@H](C)C3)CC2)cccc1-c1ccc(N2CCc3cccc(C(=O)Nc4nc5ccccc5s4)c3C2)nc1C(=O)O` (stereo partly drawn) [Compound 300a, 6-(8-(benzo[d]thiazol-2-ylcarbamoyl)-3,4-dihydroisoquinolin-2(1H)-yl)-3-(3-(((1s,4r)-4-(4-((3R)-4-(3-(2,6-dioxopiperidin-3-yl)-1-methyl-1H-indazol-6-yl)-3-methylpiperazin-1-yl)butyl)cyclohexyl)oxy)-2-methylphenyl)picolinic acid], the “Ymin (24 h)” value (24 h) was “A (Ymin < 50%)”. Besides, the DC50 (24 h, read-out: EC50 (24 h)) was under 100 nM.

On to `Cc1c(OCCC[C@@H]2CCN(CC(=O)Nc3cccc4c(C5CCC(=O)NC5=O)nn(C)c34)CC2(F)F)cccc1-c1ccc(N2CCc3cccc(C(=O)Nc4nc5ccccc5s4)c3C2)nc1C(=O)O` (stereo partly drawn) [Compound 197b, 6-(8-(benzo[d]thiazol-2-ylcarbamoyl)-3,4-dihydroisoquinolin-2(1H)-yl)-3-(3-(3-((4R)-1-(2-((3-(2,6-dioxopiperidin-3-yl)-1-methyl-1H-indazol-7-yl)amino)-2-oxoethyl)-3,3-difluoropiperidin-4-yl)propoxy)-2-methylphenyl)picolinic acid], for which, under “24 h”, the “Ymin (24 h)” value is listed as “B (50% ≤ Ymin < 70%)”. Further, the DC50 (24 h, read-out: EC50 (24 h)) is 100 to 1000 nM.

For the compound `Cc1c(O[C@H]2CC[C@H](CCCN3CCN(c4cccc5c(C6CCC(=O)NC6=O)nn(C)c45)[C@H](C)C3)CC2)cccc1-c1ccc(N2CCc3cccc(C(=O)Nc4nc5ccccc5s4)c3C2)nc1C(=O)O` (stereo partly drawn) [Compound 274a, 6-(8-(benzo[d]thiazol-2-ylcarbamoyl)-3,4-dihydroisoquinolin-2(1H)-yl)-3-(3-(((1S,4r)-4-(3-((3R)-4-(3-(2,6-dioxopiperidin-3-yl)-1-methyl-1H-indazol-7-yl)-3-methylpiperazin-1-yl)propyl)cyclohexyl)oxy)-2-methylphenyl)picolinic acid], the “Ymin (24 h)” value (24 h) is “A (Ymin < 50%)”. Further, the DC50 (24 h, read-out: EC50 (24 h)) is under 100 nM.

On to `Cc1c(O[C@H]2CC[C@H](CC[C@H](C)CN3CCN(c4ccc5c(C6CCC(=O)NC6=O)nn(C)c5c4)CC3)CC2)cccc1-c1ccc(N2CCc3cccc(C(=O)Nc4nc5ccccc5s4)c3C2)nc1C(=O)O` (single isomer, unassigned) [Compound 308b], for which the “Ymin (24 h)” value (24 h) is listed as “A (Ymin < 50%)”. Besides, the DC50 (24 h, read-out: EC50 (24 h)) is under 100 nM.

Regarding `Cc1c(OCCCN2CCN(CCCOc3ccc4c(C5CCC(=O)NC5=O)nn(C)c4c3)C(C(F)(F)F)C2)cccc1-c1ccc(N2CCc3cccc(C(=O)Nc4nc5ccccc5s4)c3C2)nc1C(=O)O` (stereo not drawn) [Compound 165, 6-(8-(benzo[d]thiazol-2-ylcarbamoyl)-3,4-dihydroisoquinolin-2(1H)-yl)-3-(3-(3-(4-(3-((3-(2,6-dioxopiperidin-3-yl)-1-methyl-1H-indazol-6-yl)oxy)propyl)-3-(trifluoromethyl)piperazin-1-yl)propoxy)-2-methylphenyl)picolinic acid], the “Ymin (24 h)” value (24 h) is recorded as “B (50% ≤ Ymin < 70%)”. Besides, the DC50 (24 h, read-out: EC50 (24 h)) fell in the range of 100 to 1000 nM.

Consider `Cc1c(OCCOC2CCN(CC(=O)Nc3cccc4c(C5CCC(=O)NC5=O)nn(C)c34)CC2)cccc1-c1ccc(N2CCc3cccc(C(=O)Nc4nc5ccccc5s4)c3C2)nc1C(=O)O` (stereo not drawn) [Compound 194, 6-[8-(1,3-benzothiazol-2-ylcarbamoyl)-3,4-dihydro-1H-isoquinolin-2-yl]-3-[3-[2-[[1-[2-[[3-(2,6-dioxo-3-piperidyl)-1-methyl-indazol-7-yl]amino]-2-oxo-ethyl]-4-piperidyl]oxy]ethoxy]-2-methyl-phenyl]pyridine-2-carboxylic acid], for which the “Ymin (6 h)” value (6 h) is on record as “B (50% ≤ Ymin < 70%)”. In addition, for the setting “24 h”, the “Ymin (24 h)” value is given as “B (50% ≤ Ymin < 70%)”. The DC50 was 100 to 1000 nM (6 h, read-out: EC50 (6 h)) and 100 to 1000 nM (24 h, read-out: EC50 (24 h)).

`Cc1c(OCCC[C@@H]2CCN(CC(=O)Nc3ccc4c(C5CCC(=O)NC5=O)nn(C)c4c3)[C@H](C)C2)cccc1-c1ccc(N2CCc3cccc(C(=O)Nc4nc5ccccc5s4)c3C2)nc1C(=O)O` (stereo partly drawn) [Compound 343a, 6-(8-(benzo[d]thiazol-2-ylcarbamoyl)-3,4-dihydroisoquinolin-2(1H)-yl)-3-(3-(3-((2R,4R)-1-(2-((3-(2,6-dioxopiperidin-3-yl)-1-methyl-1H-indazol-6-yl)amino)-2-oxoethyl)-2-methylpiperidin-4-yl)propoxy)-2-methylphenyl)picolinic acid]: the “Ymin (24 h)” value (24 h) is reported as “A (Ymin < 50%)”. The DC50 (24 h, read-out: EC50 (24 h)) was under 100 nM.

Take `Cc1c(O[C@H]2CC[C@H]([C@@H](C)CCN3CCN(c4ccc5c(C6CCC(=O)NC6=O)nn(C)c5c4)CC3)CC2)cccc1-c1ccc(N2CCc3cccc(C(=O)Nc4nc5ccccc5s4)c3C2)nc1C(=O)O` (single isomer, unassigned) [Compound 310b]: the “Ymin (24 h)” value (24 h) was “A (Ymin < 50%)”. Further, the DC50 (24 h, read-out: EC50 (24 h)) was under 100 nM.

Regarding `Cc1c(O[C@H]2CC[C@H](CCC(=O)N3CCC(c4ccc5c(C6CCC(=O)NC6=O)nn(C)c5c4)CC3)CC2)cccc1-c1ccc(N2CCc3cccc(C(=O)Nc4nc5ccccc5s4)c3C2)nc1C(=O)O` (stereo partly drawn) [Compound 259a, 6-(8-(benzo[d]thiazol-2-ylcarbamoyl)-3,4-dihydroisoquinolin-2(1H)-yl)-3-(3-(((1r,4r)-4-(3-(4-(3-(2,6-dioxopiperidin-3-yl)-1-methyl-1H-indazol-6-yl)piperidin-1-yl)-3-oxopropyl)cyclohexyl)oxy)-2-methylphenyl)picolinic acid], the “Ymin (24 h)” value (24 h) is given as “A (Ymin < 50%)”. Also, the DC50 (24 h, read-out: EC50 (24 h)) is under 100 nM.

`Cc1c(OCCCC2CCN(CCCc3ccc4c(C5CCC(=O)NC5=O)nn(C)c4c3)CC2)cccc1-c1ccc(N2CCc3cccc(C(=O)Nc4nc5ccccc5s4)c3C2)nc1C(=O)O` (stereo not drawn) [Compound 305, 6-(8-(benzo[d]thiazol-2-ylcarbamoyl)-3,4-dihydroisoquinolin-2(1H)-yl)-3-(3-(3-(1-(3-(3-(2,6-dioxopiperidin-3-yl)-1-methyl-1H-indazol-6-yl)propyl)piperidin-4-yl)propoxy)-2-methylphenyl)picolinic acid]: the “Ymin (24 h)” value (24 h) is recorded as “A (Ymin < 50%)”. Besides, where the note is “24 h, read-out: EC50 (24 h)”, the DC50 is under 100 nM.

The values above are taken from patent publication US20240238423A9, “TETRAHYDROISOQUINOLINE HETEROBIFUNCTIONAL BCL-XL DEGRADERS” (Treeline Biosciences, Inc., priority 2022, published 2024).
